The record followed here is PubChem BioAssay AID463199 (Broad Institute, 2010).

Activity calls are given as the source filed them.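 How the source made its calls: active means AC50, the dose giving half-maximal effect, exceeds a fixed cutoff for a compound that rescues yeast growth under heat; inactive means the rest, inconclusive results apart.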 Bounds are passed on as bounds.

This assay deals with S. cerevisiae Burl-1 ts mutant growth, BacTiter-Glo, 38.5C 24 h. The assay can be described thus: restored growth of temperature-sensitive Burl-1 yeast – whole organism, S. cerevisiae, Burl-1 ts mutant, luminescence, counter-screen for SUMOylation pathway inhibitor project, dose response (AID 463199).
For the compound `CCOc1ccc(-n2cc(C(=O)NCCOC)c3cc(OC)c(OC)cc3c2=O)cc1`, the AC50 is > 42 µM (inactive). As to `O=C1CCC(C(=O)N2CCN(c3ccccc3)CC2)CN1CC1CCCCC1` (stereo not drawn), the AC50 was > 42 µM (inactive).

Turning to `Cc1cccc(C)c1NC(=O)C1(N(Cc2ccco2)C(=O)CC2NC(=O)NC2=O)CCCCC1` (stereo not drawn), the AC50 is > 42 µM (inactive). Turning to `CCCCNC(=O)C1C2C=CC3(CN(Cc4ccc(C)cc4)C(=O)C13)O2` (stereo not drawn), the AC50 is > 42 µM (inactive). With `CCOc1ccc(NS(=O)(=O)c2ccc(C(=O)NCc3cccnc3)cc2)cc1`, the AC50 is > 42 µM (inactive). The result for `O=C(COC(=O)c1c(F)cccc1F)c1ccc[nH]1` reads > 42 µM (inactive); that for `CCCCn1c(/C=N/Nc2nc3ccccc3[nH]2)nc2ccccc21`, > 42 µM (inactive); that for `CCCC(O)(CCC)C(=O)NNc1ccc(C)cc1`, > 42 µM (inactive).

Consider `CCCNC(=O)CN(c1ccc(F)cc1)S(=O)(=O)c1ccc2c(c1)OCCO2`, for which the AC50 was > 42 µM (inactive). The result for `CC1CC(N(C(=O)c2ccccc2Cl)c2ccccc2)c2ccccc2N1` (stereo not drawn) reads > 42 µM (inactive); that for `O=[N+]([O-])c1cncc([N+](=O)[O-])c1Nc1ccccc1Cl`, > 42 µM (inactive).

On to `CN1CCCCC1=NCCCn1cnc2c1c(=O)n(C)c(=O)n2C`, for which the AC50 was > 42 µM (inactive). With `CC1(C)CC(=O)C(C=Nc2ccc(O)c(N=CC3=C(O)CC(C)(C)CC3=O)c2)=C(O)C1` the figure was > 42 µM (inactive); with `CCn1c(SCC(=O)N/N=C/c2ccccc2OCC(=O)O)nnc1-c1ccc(C(C)(C)C)cc1`, > 42 µM (inactive); with `O=C(Nc1cccnc1Cl)c1cc2ccccc2o1`, > 42 µM (inactive). As for `COc1cccc(/C=N/NC(=O)CNC(=O)c2ccco2)c1O`, the AC50 was > 42 µM (inactive). With `CC(NC(=O)C1CCCN(S(=O)(=O)N2CCOCC2)C1)c1ccccc1` (stereo not drawn) the figure was > 42 µM (inactive); with `CCCN1C(=O)c2ccccc2NC1c1ccc(C)cc1` (stereo not drawn), > 42 µM (inactive); with `C=CCSC1=C(C#N)C(c2ccc(C(C)C)cc2)CC(=O)N1` (stereo not drawn), > 42 µM (inactive). Regarding `Cc1ccc(-n2nc3c(=O)n(CCCC(=O)NCc4cccc(F)c4)nc(C)c3c2C)cc1`, the AC50 was > 42 µM (inactive). With `CC/C(=N\NC(=O)c1nnn(-c2nonc2N)c1-c1cccs1)c1ccccc1`, the AC50 was > 42 µM (inactive). With `CCC(C(=O)Nc1cccnc1)c1ccccc1` (stereo not drawn) the figure was > 42 µM (inactive).

As for `NNc1nc2sc3c(c2c(=O)n1-c1ccccc1)CCCC3`, the AC50 is > 42 µM (inactive). Regarding `COCCNC(=O)C(=O)NCC1OCCN1C(=O)c1ccc(Cl)cc1` (stereo not drawn), the AC50 was > 42 µM (inactive). With `COC(=O)c1cc(Cl)c(NC(=O)C(C)C)cc1OC` the figure was > 42 µM (inactive); with `O=C(CSc1cccc[n+]1[O-])N1CCc2ccccc21`, > 42 µM (inactive). With `CC(=O)Nc1ccc(S(=O)(=O)N(C)CC(=O)Nc2ccc(Br)cc2F)cc1` the figure was > 42 µM (inactive); with `Cc1ccc(CSCCNC(=O)c2ccc(NS(C)(=O)=O)cc2)cc1`, > 42 µM (inactive); with `COc1ccccc1NC(=O)Nc1ccc(Cl)c(S(=O)(=O)Nc2ccccc2OC)c1`, > 42 µM (inactive). Turning to `CN(C)c1ccc(CN(Cc2ccco2)C(=O)c2ccco2)cc1`, the AC50 is > 42 µM (inactive). The result for `COc1cc([C@@H]2CC=C(C(=O)O)[C@H](c3ccccc3F)N2S(=O)(=O)c2ccc(C)cc2)cc(OC)c1OC` reads > 42 µM (inactive); that for `CN(C)C(/C=C/Nc1cccc(Br)c1)=C(C#N)C#N`, > 42 µM (inactive); that for `O=S(=O)(O)c1ccc(N=NNc2ccc(Br)cc2)cc1`, > 42 µM (inactive). For `O=C(CN1CCN(c2nc(-c3ccccc3)cs2)CC1)NNC(=O)c1ccc(Br)cc1`, the AC50 is > 42 µM (inactive).

Turning to `COCCn1c(SCC(=O)N2CCCC2)nnc1-c1ccoc1C`, the AC50 was > 42 µM (inactive).

On to `Cn1c(=O)c2c(ncn2CC(=O)N2CCCCCC2)n(C)c1=O`, for which the AC50 is > 42 µM (inactive). On to `CN(C)/C(CN1CCCCC1)=C1\N=C(c2ccccc2)OC1=O`, for which the AC50 is > 42 µM (inactive). Turning to `Cc1ccc2nc3c(cc(C(=O)NCCN4CCOCC4)c(=N)n3CCCN3CCOCC3)c(=O)n2c1`, the AC50 was > 42 µM (inactive).

Take `CCCc1nnc(NC(=O)c2cn(CC)c3cc(N4CCN(C)CC4)c(F)cc3c2=O)s1`: the AC50 was > 21 µM (inactive).

For `O=C(NNC(=O)c1ccccc1O)c1ccco1`, the AC50 was > 42 µM (inactive).

As for `NC(=O)C1=C[C@@H](c2ccc(Br)cc2)C[C@@H](OCCCCO)O1`, the AC50 is > 42 µM (inactive).

As for `CN(C)C(CNC(=O)CNC(=O)c1ccc(Br)cc1)c1ccccc1` (stereo not drawn), the AC50 was > 42 µM (inactive). On to `Cc1cc([N+](=O)[O-])nn1CC(=O)NNC(=S)Nc1ccc([N+](=O)[O-])cc1`, for which the AC50 was > 21 µM (inactive). With `CCc1cc(/C(Cc2ccccn2)=N\O)c(O)cc1O` the figure was > 42 µM (inactive); with `CCCOc1ccccc1C1NC(=O)NC(C)=C1C(=O)OCCOCC` (stereo not drawn), > 42 µM (inactive). With `COc1ccc(CCNC(=O)C/C(C)=N/NC(=O)COc2ccc(C)cc2Br)cc1OC` the figure was > 42 µM (inactive). With `CC(=O)C(C(c1ccccc1)c1c[nH]c2ccccc12)[N+](=O)[O-]` (stereo not drawn) the figure was > 42 µM (inactive); with `COc1cc(O)oc1C=Nc1ccc(C(=O)O)cc1`, > 42 µM (inactive).

As for `CCOC(=O)C1CCN(CC(O)COCc2ccccc2)CC1` (stereo not drawn), the AC50 was > 42 µM (inactive). On to `Cc1nc2ccccc2c2ncccc12`, for which the AC50 is > 42 µM (inactive).

As for `COc1ccccc1CNC(=O)[C@H](C)NC(=O)C1CCN(C(=O)[C@@H](N)CC(C)C)CC1`, the AC50 was > 42 µM (inactive). Consider `O=S(=O)(Cc1ccccc1)NCc1ccccn1`, for which the AC50 is > 42 µM (inactive). With `CC(=O)N1CCc2cc(S(=O)(=O)NCCC3=CCCCC3)ccc21` the figure was > 42 µM (inactive).

As for `CN(C(=O)c1cncc(Br)c1)C1C2CC3CC(C2)CC1C3` (stereo not drawn), the AC50 was 8.94 µM. The result for `O=C(c1ccc(OC2CCN(CCc3ccccc3)CC2)cc1)N1CCCC1` reads > 42 µM (inactive); that for `Cc1c(NC(=O)CN2C(=O)NC(C)(c3ccc(OC(F)F)cc3)C2=O)c(=O)n(-c2ccccc2)n1C` (stereo not drawn), > 42 µM (inactive). The result for `CCc1cc2c(=O)c(-c3nc4ccccc4n3C)c(C)oc2c(CN2CCOCC2)c1O` reads 22.7 µM. With `N#CC1=C(N)Oc2c(ccc3ccccc23)C1c1cccs1` (stereo not drawn) the figure was > 42 µM (inactive); with `CSc1ccccc1-c1nc(-c2ccncc2)no1`, > 42 µM (inactive). For `COc1cc(C(=O)NCCOc2cc(C)cc(C)c2)cc(OC)c1OC`, the AC50 was > 42 µM (inactive). With `COCCN1C(=O)/C(=C/c2cc3c(cc2Br)OCO3)NC1=S` the figure was > 42 µM (inactive); with `CN1CC2(C)OC(=O)C(Cl)=C2CC1c1ccccc1` (stereo not drawn), > 42 µM (inactive); with `COc1ccc(NC(=O)CN(c2ccc(C(C)C)cc2)S(=O)(=O)c2c(C)noc2C)cc1OC`, > 42 µM (inactive). With `CCN(CC)S(=O)(=O)c1ccc(S(=O)(=O)N2CCC(C(=O)NC3CCN(Cc4ccccc4)CC3)CC2)cc1`, the AC50 was > 42 µM (inactive).

Regarding `CCOc1ccc(Cn2c(SCCCCC#N)nc3c2c(=O)n(C)c(=O)n3C)cc1OCC`, the AC50 was > 42 µM (inactive).

For `O=C(NCCc1c[nH]c2ccccc12)c1cc(S(=O)(=O)N2CCCCC2)ccc1N1CCOCC1`, the AC50 was > 42 µM (inactive). For `NC(=O)c1ccccc1NC(=O)c1ccc2c(c1)OCO2`, the AC50 is > 42 µM (inactive). The result for `CCOC(=O)c1c(C)[nH]c2c1cc(O)c1ccccc12` reads > 42 µM (inactive); that for `CC1Cc2ccccc2N1C(=O)Cn1c(=O)cc(O)c2ccccc21` (stereo not drawn), > 42 µM (inactive); that for `COC(=O)Oc1ccc(/C=N/NS(=O)(=O)c2ccccc2)cc1OC`, > 42 µM (inactive). Regarding `COc1ccc(CCNC(=O)c2cc(-c3ccco3)on2)cc1OC`, the AC50 was > 42 µM (inactive). The result for `CCC(CC)C(=O)Nc1ccc(S(=O)(=O)Nc2nccs2)cc1` reads 26 µM; that for `Cn1c(-c2ccc3c(c2)OCO3)cnc1NC(=O)CCC(=O)NCCc1ccccc1`, > 42 µM (inactive). Take `Cc1ccc(C(=O)NCCCNC(=O)c2ccc(C)nc2)cc1`: the AC50 is > 42 µM (inactive). The result for `COc1ccccc1NC(=O)c1nn(C)cc1Br` reads > 42 µM (inactive); that for `CC/C(=N\Nc1ccc([N+](=O)[O-])cc1)c1ccccc1`, > 42 µM (inactive). With `CC(C)C1OC2(C)OC(=N)C1(C#N)C(C#N)(C#N)C2c1ccccc1` (stereo not drawn) the figure was > 42 µM (inactive); with `CSc1ncc2ncn(C3OC(CO)C(O)C3O)c2n1` (stereo not drawn), > 42 µM (inactive); with `OCC1(Cc2cccc(Cl)c2)CCCN(Cc2ccc(F)c(F)c2)C1` (stereo not drawn), > 42 µM (inactive). On to `CCc1ccc(NC(=O)N2CCC(c3ccccc3)C2)cc1` (stereo not drawn), for which the AC50 is > 42 µM (inactive).

Consider `CC1(C)Cc2c(c(N3CCCC3)nc3sc4c(N5CCN(CCO)CC5)ncnc4c23)CO1`, for which the AC50 was > 42 µM (inactive).

Regarding `Cc1[nH]c2ccccc2c1/C=N/NC(=O)c1cccc(Br)c1`, the AC50 was > 42 µM (inactive).

`CCN1C(=O)N(C)[C@@H](c2ccccc2)C(C(=O)OC)=C1C`: the AC50 was > 42 µM (inactive). With `Cc1cc(NC(=O)/C=C/c2ccco2)ccc1NC(=O)c1ccccc1` the figure was > 42 µM (inactive); with `CCOC(=O)CNC(=O)c1cccnc1`, > 42 µM (inactive). Turning to `O=Cc1cn(Cc2ccccc2F)c2ccccc12`, the AC50 was > 42 µM (inactive). The result for `COc1cccc(Cn2cnc3c(NS(=O)(=O)c4cccc(Cl)c4Cl)c(C)c(C)cc32)c1` reads > 42 µM (inactive). The result for `CCOc1cc(-c2ccccc2)nc(N)n1` reads > 42 µM (inactive).
